{
  "source": "patent US20200214324A1",
  "about": "“Masking Bitter Flavors” (Board of Supervisors of Louisiana State University and …, priority 2009, published 2020)",
  "key": {"[1]": {"assay": "taste of the mogroside itself and blocking of bitter tastes", "assay_type": "in vivo", "source_text": "In many (but not necessarily all) uses of the present invention, it is preferred to use levels of mogroside below the threshold at which the mogroside imparts a sweetening effect. […] Mogroside V is sweet. Mogroside III has been reported to be tasteless. […] If desired, it should be possible to use Mogroside III in higher concentration than Mogroside V to block bitter or other unwanted tastes, without imparting any sweetening effect."}, "[2]": {"settings": "has been reported; cited from earlier work"}, "[3]": {"assay": "blind tasting of poached chicken liver and chicken gizzard puree", "assay_type": "in vivo", "experimental": "In initial experiments, Mogroside V was tested at varying levels from 100-500 ppm. […] Mogroside V was added to a chicken liver and chicken gizzard puree, and the puree was poached to an internal temperature of 74° C. A control puree with no mogroside was identically cooked. Six individuals tasted the samples blind and could easily differentiate them."}, "[4]": {"assay": "sodium reduction blends tested on shredded wheat crackers", "assay_type": "in vivo", "experimental": "(§1) These sodium reduction blends were tested with red beans, navy beans, crackers, and potato chips. Results are shown in Table III (in which “M” is an abbreviation for Mogroside V.)"}, "[5]": {"assay": "sodium reduction blends tested on red beans", "assay_type": "in vivo", "experimental": "as §1"}, "[6]": {"assay": "sodium reduction blends tested on whole wheat crackers", "assay_type": "in vivo", "experimental": "as §1"}, "[7]": {"assay": "sodium reduction blends tested on navy beans", "assay_type": "in vivo", "experimental": "as §1"}, "[8]": {"assay": "sodium reduction blends tested on potato chips", "assay_type": "in vivo", "experimental": "as §1"}},
  "note": "Where two headings read alike, the source gives them in different places.",
  "data": [
    {"smiles": "C[C@H](CC[C@@H](O[C@@H]1O[C@H](CO[C@@H]2O[C@H](CO)[C@@H](O)[C@H](O)[C@H]2O)[C@@H](O)[C@H](O)[C@H]1O)C(C)(C)O)[C@H]1CC[C@@]2(C)[C@@H]3CC=C4[C@@H](CC[C@H](O[C@@H]5O[C@H](CO)[C@@H](O)[C@H](O)[C@H]5O)C4(C)C)[C@]3(C)[C@H](O)C[C@]12C", "note": "[Mogroside III]", "values": [
      {"measurement": "blocking of bitter tastes", "setting": "[1]; preliminary tests", "value": "effectively blocks bitter tastes"},
      {"measurement": "taste of the compound itself", "setting": "[2]", "value": "tasteless"}
    ]},
    {"smiles": "C[C@H](CC[C@@H](O[C@@H]1O[C@H](CO[C@@H]2O[C@H](CO)[C@@H](O)[C@H](O)[C@H]2O)[C@@H](O)[C@H](O)[C@H]1O[C@@H]1O[C@H](CO)[C@@H](O)[C@H](O)[C@H]1O)C(C)(C)O)[C@H]1CC[C@@]2(C)[C@@H]3CC=C4[C@@H](CC[C@H](O[C@@H]5O[C@H](CO[C@@H]6O[C@H](CO)[C@@H](O)[C@H](O)[C@H]6O)[C@@H](O)[C@H](O)[C@H]5O)C4(C)C)[C@]3(C)[C@H](O)C[C@]12C", "note": "[Mogroside V]", "values": [
      {"measurement": "taste of the compound itself", "setting": "[1]; in vivo", "value": "sweet"},
      {"measurement": "taste description by six blind tasters", "setting": "[3]; 150-250 ppm, puree poached to 74° C., control livery, organy, bloody", "value": "slightly sweet, “bologna-like,” and “bland.”"},
      {"measurement": "effect above the preferred range", "setting": "[3]; above about 250 ppm", "value": "a very sweet taste developed"},
      {"measurement": "effect below the preferred range", "setting": "[3]; below about 150 ppm", "value": "the effect was minimal"},
      {"measurement": "preferred levels of mogroside", "setting": "[3]; initial experiments, tested 100-500 ppm", "value": "150-250 ppm"},
      {"measurement": "preference of testers", "setting": "[3]; samples with mogroside vs control puree, six individuals", "value": "All testers preferred the samples with mogroside"},
      {"measurement": "level preferred by the majority of testers", "setting": "[3]; tested 100-500 ppm", "value": 200, "unit": "ppm"}
    ]},
    {"smiles": "[Cl-].[Na+]", "note": "[NaCl]", "values": [
      {"measurement": "Overall Taste", "setting": "[4]", "value": 6.04},
      {"measurement": "Saltiness", "setting": "[4]", "value": 6.04},
      {"measurement": "Overall Taste", "setting": "[5]", "value": 6.79},
      {"measurement": "Saltiness", "setting": "[5]", "value": 6.63},
      {"measurement": "Overall Taste", "setting": "[6]", "value": 7.04},
      {"measurement": "Saltiness", "setting": "[6]", "value": 6.96},
      {"measurement": "Overall Taste", "setting": "[7]", "value": 6.17},
      {"measurement": "Saltiness", "setting": "[7]", "value": 6.13},
      {"measurement": "Overall Taste", "setting": "[8]", "value": 6.97},
      {"measurement": "Saltiness", "setting": "[8]", "value": 6.92}
    ]}
  ]
}
